The values below come from patent publication US20190307690A1 (THE AMERICAN UNIVERSITY IN CAIRO, priority 2016, published 2019).

The conditions of data set [1]: reference [91]; cited from earlier work.
In another data set the test system is MCF-7 cell line. Nature of the data set: γ-H2AX assay (DNA damage). Type of data set: cell-based, human. As to conditions: 2 μM, 1 hr exposure, 24 hours in fresh media; preliminary data. The protocol:
After incubation, the media was discarded and the cells were further incubated in fresh media for 24 hours. Cells were then fixed using formaldehyde and permeabilized with Triton X-100, and subsequently incubated with H2AX primary antibody for 1 hr. Then, cells were washed using PBS and were further incubated for 30 min. in FITC mouse secondary antibody and washed using PBS. Finally cells were stained using DAPI and observed under a fluorescence microscope.

Data set [2] in a line: In-vitro drug release analysis (dialysis, PBS pH 7.4) with release kinetics and f1/f2 comparison. The class given is physicochemical. The following applies: oxaliplatin release. The method, then: The drug release testing was conducted according to a described method (Shazly et al., Comparison of dialysis and dispersion methods for in vitro release determination of drugs from multilamellar liposomes, Dissolution Technol., vol. 15, no. 2, pp. 7-10, 2008). […] A volume of 0.5 ml of liposomal preparation was placed in a dialysis tubing (3.8 cm in length). Both ends were tied. The dialysis bag was suspended in 25 ml PBS at pH 7.4 and maintained at 37±0.5° C. (Shazly et al., 2008). The dispersion was rotated at 200 strokes/minute in a water bath shaker (Shazly et al., 2008). At predetermined time intervals of 0.25, 0.5, 1, 1.5, 2, 4, 6, 8, 12, 24, 48, and 72 h; 1 ml aliquots were sampled and replaced with 1 ml fresh pH 7.4 PBS, which was maintained at the same temperature as the samples being 37±0.5° C. Drug concentrations were determined using HPLC.
Two methods were used to investigate the kinetics of drug release profile from the prepared liposomal formulations.
This method involved the fitting of the release data to one of the following seven release kinetic models.
Where, Qt is the amount of drug released in time t, Q0 is the initial amount of drug in the solution and K0 is the zero order release constant expressed in units of concentration/time. To study the release kinetics, data obtained from in-vitro drug release studies were plotted as cumulative amount of drug released versus time.
Where, Ct is the concentration of drug released in time t, C0 is the initial concentration of drug, K1 is the first order rate constant. The data obtained were plotted as log cumulative percentage of drug remaining versus time which would yield a straight line with a slope of −K/2.303.
Where, Q is the amount of drug released in time t, KH is the Higuchi dissolution constant. The data obtained were plotted as cumulative percentage of drug released versus square root of time.
Where, Qt is the amount of drug remaining in time t, Q0 is the initial amount of the drug in liposome and KC is the rate constant for Hixson-Crowell rate equation. The data obtained were plotted as Cube root of cumulative percentage of drug remaining versus time.
Where Mt/M∞ is a fraction of drug released at time t, KP is the release rate constant and n is the release exponent. The data obtained were plotted as log (cumulative percentage of drug released) versus log (time).
Where [Mt/M∞] is a fraction of drug released at time t, KB is the release rate constant. To study the release kinetics, data obtained from in-vitro drug release were plotted as [d(Mt/M∞)/dt] against the root of time inverse on x-axis.
Where Vm is the maximum release rate, Km is the Michaelis-Menten constant, C is the amount of drug released, and t is time. The data obtained were plotted as drug release % versus time. Michaelis-menten was previously reported in describing the release kinetics of Ketorolac from silica nanoparticles (Lopez Goerneet al., Obtaining of sol-gel ketorolac-silica nanoparticles: Characterization and drug release kinetics, J. Nanomater., vol. 2013, 2013).
This method utilizes the difference factor (f1), similarity factor (f2) to compare the release profiles of different formulations by measuring the percent difference and the percent similarity respectively.
Where, n is the number of release sample time intervals, Rt, and Tt are the percent released at each time point, t, for the reference and test drug release profiles, respectively.

SMILES strings stand for the structures. Bounds are passed on as bounds.

Take `N[C@@H]1CCCC[C@H]1N.O=C([O-])C(=O)[O-].[Pt+2]` [Oxaliplatin, Platinum(2+) ethanedioate (1R,2R)-1,2-cyclohexanediamine (1:1:1)]: the Cell membrane permeability in data set [1] is <1 × 10^−6 [91] cm/s. Moreover, in the data set on MCF-7 cell line, the “DNA damage magnitude (γ-H2AX immunofluorescence), in words” value is recorded as “relatively lower DNA damage”. Moreover, in data set [2], the “Baker-Lonsdale K (release rate constant)” value turned out to be 0.1963, the “First-order K1 (release rate constant)” value was −0.0172, the “Higuchi KH (rate constant)” value amounted to 4.5644 and the “Hixson-Crowell KC (cube root law release constant)” value is −0.0127. Further, in data set [2], the “Korsmeyer-peppas n (slope exponent)” value stood at 0.0257, the “Michaelis-Menten K (release rate constant)” value stood at 0.0422 and the “Zero-order K0 (release rate constant)” value is 0.3444. Further, in data set [2] (Reference LP-Ox), the “F1 (difference factor)” value is listed as 11.37 and the “F2 (similarity factor)” value is on record as 50.60. Further, in data set [2] (Reference LP-void-Oxpt), the “F1 (difference factor)” value was found to be 22.47 and the “F2 (similarity factor)” value was found to be 38.25. In data set [2] (Reference Lipoxal), the “F1 (difference factor)” value was determined as 252.7 and the “F2 (similarity factor)” value was 8.940.
